From patent US9303069B2, “Peptides for treating cancer” (University of Mississippi Medical Center, priority 2014, dated 2016)
“Also recorded” adds a separate entry of the source. Ends that are not written are not given here.

What was measured:
MDA-MB-231 cells = conditions: 48 h
Procedure: (§1) All cell lines were exposed to increasing concentrations of paclitaxel and BRCA1-IRIS expression, and cells' viability was then measured.
Stable clones were then exposed to 0, 10 or 20 μM of EGFR (Erlotinib), ErbB2 (CP-724714), PI3′K/AKT (LY294002), p38 (SB203580), ERK (PD98059) or JNK (SP600125) inhibitors for 24 hours.
First, to assess the effect of this IRIS peptide, equal numbers of HME, HME/IRIS, MDA-MB-231, MDA-MB-468 and BT549 cells were exposed to increasing concentrations of scrambled or IRIS peptide for 48 hours.
Cell viability under different experimental conditions was determined using the MTS assay. Briefly, cells (2.5×10^4 cells per well) were seeded in 96-well plates and incubated overnight at 37° C. in 10% humidified CO2 atmosphere. The next day they were incubated with varying concentration of peptide, or inhibitors for 24 hours at 37° C. Cell viability was determined using cell Titer 96® Aqueous (Promega, Madison, Wis., USA) following manufacturer's instructions. Cell viability (%) was expressed as a ratio of treated cells to control cells×100. Growth inhibition was also determined by manually counting cells in five different microscopic fields. Change in cell numbers (fold) was expressed as a ratio of the means of these recording of treated cells compared to control cells×100. Each experiment was done in triplicate, repeated three separate times.

HME cells = conditions: 48 h
Procedure: as §1
Cell viability measurement. Cell viability under different experimental conditions was determined using the MTS assay. Briefly, cells (2.5×10^4 cells per well) were seeded in 96-well plates and incubated overnight at 37° C. in 10% humidified CO2 atmosphere. The next day they were incubated with varying concentration of peptide, or inhibitors for 24 hours at 37° C. Cell viability was determined using cell Titer 96® Aqueous (Promega, Madison, Wis., USA) following manufacturer's instructions. Cell viability (%) was expressed as a ratio of treated cells to control cells×100. […] Each experiment was done in triplicate, repeated three separate times.

caspase 3/7 = experiment: Cleaved / activated caspase 3/7 in MDA-MB-231 and MDA-MB-468 cells; format: cell-based, human; conditions: increasing concentrations of IRIS peptide
Procedure: To assess whether BRCA1-IRIS inactivation can sensitize TNBC cells to lower paclitaxel concentrations, MDA-MB-231 and MDA-MB-468 were exposed to 1 μM of paclitaxel 0, 1, 2, 5 and 10 μM of IRIS peptide for 24 hours. […] Perhaps more importantly, in the presence of only 1 μM of paclitaxel, the IC50 of IRIS peptide was reduced to <2 μM in both cell lines (dark color lines in FIG. 85).

[1] = test system: MDA-MB-231 and MDA-MB-468 cells; experiment: Invasion assay, matrigel coated Boyden chambers, TNBC cells; format: cell-based, human; conditions: peptide added every 3rd day
Description: To study invasion in vitro, matrigel coated Boyden chambers were layered with MDA-MB-231 or MDA-MB-468 cells expressing shcontrol of shIRIS expressing cells, also parental cells were layered and grown in the presence of scrambled or IRIS peptide (added every 3rd day). To migrate to the lower side of the chamber or the bottom well, cells must first digest the matrigel. Four days later, a significant number of control treated cells invaded the matrigel and migrated to the lower side of the chambers (FIG. 95, 1st column and FIG. 96) and the bottom well (FIG. 97 and FIG. 98, 1st column) in both cell lines. […] Quantitatively, BRCA1-IRIS silencing or inactivation reduced the invasive/migratory ability of these TNBC cells by ˜100 fold (FIG. 96 and FIG. 97).
Cell Invasion assay. Growth reduced BD Matrigel™ invasion chamber (24 well plate, 8.0 μm, BD BioCoat™) was used to study the invasion ability of control shRNA and BRCA1-IRIS shRNA expressing MDAMB231 cells. Cells (5×10^3) in complete medium (500 μl) were seeded on the upper compartment, and the lower compartment was filled with 750 μl of complete growth medium. […] Cells invaded into the lower side of the membrane as well as those migrate to the bottom well were stained with Crystal Violet, visualized under microscope, photographed and counted. […]

[2] = test system: HME/IRIS, MDA-MB-231 and MDA-MB-468 cells; experiment: Acini formation in matrigel-coated wells, breast cell lines; format: cell-based, human; conditions: day 10; peptide added every third day
Description: Next, it was considered whether BRCA1-IRIS depletion or inactivation could impact the aggressive behavior in breast cancer cell lines. BRCA1-IRIS silenced HME, HME/IRIS, MDA-MB-231 and MDA-MB-468 cells were layered on matrigel-coated wells. Moreover, parental cell lines were layered on the matrigel and grown in the presence of scrambled or IRIS peptide (added every third day). […] On day 10, HME acini became slightly bigger but remained round (FIG. 89, 1st column and FIG. 90). Acini formed by HME/IRIS, MDA-MB-231 and MDA-MB-468 were large/non-round on day 10 (FIG. 89, 1st column and FIGS. 90 and 91). BRCA1-IRIS depletion (FIG. 89, 2nd column and FIG. 91) or inactivation (FIG. 89, 3rd column and Suppl. FIG. 91) reverted this phenotype back to near normal “small/round” acini. Quantitatively, BRCA1-IRIS overexpression led to >3-fold increase in HME cells aggressiveness, and its depletion or inactivation reduced that phenotype in tumor cells by >3 fold (FIG. 90 and FIG. 91).

[3] = test system: AKT, p-AKT, p-FOXO and FOXO3a; experiment: Signalling proteins in MDA-MB-231 and MDA-MB-468 cells (Western); format: cell-based, human
Description: This was completely in line with decreased MDM2 and Skp2 (the ubiquitin ligases responsible for p-FOXO degradation) expression in BRCA1-IRIS silenced and BRCA1-IRIS and AKT inactivated cells (FIG. 87).

SKOV3 cells = experiment: Tumor-sphere forming assay, SKOV3; format: cell-based, human; conditions: SKOV3, ultra-low binding dishes, two weeks; IRIS peptide 5 μM every third day
Procedure: Tumor-sphere: SKOV3 cells treated with scrambled or IRIS peptide (5 μM, added every third day) or expressing BRCA1-IRIS shRNA were grown in ultra-low binding culture dishes as single cells. […] BRCA1-IRIS silencing led to ˜7 fold decrease in tumor-sphere number (FIG. 43) and diameter (FIG. 43, inset), and an even more pronounced effect was detected with IRIS peptide (FIG. 43, and inset).
Tumor-sphere forming assay. Subconfluent monolayer cells were trypsinized and dissociated thoroughly to prepare single cell suspension. 1000 cells were plated, per well, onto ultra-low attachment 6-well plates (Corning Life Sciences, Union City, Calif.) in Dulbecco's modified Eagle's medium (DMEM)/F12 supplemented with 10% FBS, 2% B27 (Invitrogen), 10 ng/ml basic-fibroblast growth factor and 10 ng/mL epidermal growth factor. Cells were then incubated at 37° C. in humidified air with 10% CO2. 500 μl of medium was added to each well every 3 days, the medium containing the scrambled or IRIS peptide. […]

BRCA1-IRIS = BRCA1-IRIS expression in ovarian cells (Western analysis); format: cell-based, human; conditions: all ovarian cell lines; 10 μM of IRIS peptide for 24 hours
Description: At these low concentrations of cisplatin BRCA1-IRIS expression was induced in HOSE cells and remained high in HOSE/IRIS cells (FIG. 17). […] Cell lines expressing the lowest levels of BRCA1-IRIS (i.e.

RRIRPRPPRLPRPRPRPLPFPRPGIGTRFLCLPQSIYRSELNVYAFGEHILQISKYS [IRIS peptide]
IC50 (MDA-MB-231 cells): ~5000 nM | IC50 (HME cells): ~500 nM | cleaved / activated caspase 3/7 (caspase 3/7): gradual increase in activated caspase 3/7; also recorded: increase cleaved caspase 3/7 in both cell lines | reduction of invasive/migratory ability [1]: ~100 fold | reduction of aggressive (large/non-round) acini phenotype in tumor cells [2]: > 3 fold | total and activated AKT (p-AKT) levels ([3]; 5 μM IRIS peptide or 10 μM LY294002, 24 hours): decreased the levels of total and activated AKT (p-AKT) in both cell lines | p-FOXO and FOXO3a levels ([3]; 5 μM IRIS peptide, 10 μM LY294002 or 10 μM PD98059, 24 hours): decreased p-FOXO level and increased the levels of FOXO3a in both cell lines | tumor-sphere formation (SKOV3 cells): formed no tumor-spheres | BRCA1-IRIS expression (BRCA1-IRIS): significant reduction in BRCA1-IRIS expression
